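Cultured in 96-well plates, cells were exposed to test compound for 48 hours across five concentrations. At the GI50, growth is halved.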 Calls of active or inactive are those of the source. Rule as the data show it: active = GI50 up to about 1.1 µM and inactive = higher.
Tests used:
Assay in all cases: growth of human tumour cells (NCI), 48 h
Malme-3M = system: Malme-3M
NCI-H23 = system: NCI-H23
A549 = system: A549
SF-295 = system: SF-295
OVCAR-8 = system: OVCAR-8
HCT-15 = system: HCT-15
MDA-MB-435 = system: MDA-MB-435
HT-29 = system: HT-29
NCI-H226 = system: NCI-H226
SK-OV-3 = system: SK-OV-3
RXF 393 = system: RXF 393
SNB-19 = system: SNB-19
M14 = system: M14
OVCAR-5 = system: OVCAR-5
PC-3 = system: PC-3
Hs-578T = system: Hs-578T
LOX IMVI = system: LOX IMVI
SF-268 = system: SF-268
HCT-116 = system: HCT-116
SNB-75 = system: SNB-75
HL-60 = system: HL-60
TK-10 = system: TK-10
HOP-92 = system: HOP-92
SR = system: SR
CCRF-CEM = system: CCRF-CEM
NCI-H522 = system: NCI-H522
MDA-MB-231 = system: MDA-MB-231
A498 = system: A498
SF-539 = system: SF-539
IGROV-1 = system: IGROV-1
MCF7 = system: MCF7
SK-MEL-28 = system: SK-MEL-28
SK-MEL-5 = system: SK-MEL-5
HOP-62 = system: HOP-62
SW-620 = system: SW-620
UO-31 = system: UO-31
HCC 2998 = system: HCC 2998
NCI-H460 = system: NCI-H460
OVCAR-4 = system: OVCAR-4
DU-145 = system: DU-145
UACC-257 = system: UACC-257
786-0 = system: 786-0
UACC-62 = system: UACC-62
COLO 205 = system: COLO 205
RPMI-8226 = system: RPMI-8226
SK-MEL-2 = system: SK-MEL-2
MDA-N = system: MDA-N
BT-549 = system: BT-549
EKVX = system: EKVX
ACHN = system: ACHN
KM12 = system: KM12
K562 = system: K562
CAKI-1 = system: CAKI-1
MOLT-4 = system: MOLT-4
OVCAR-3 = system: OVCAR-3
U-251 = system: U-251
NCI/ADR-RES = system: NCI/ADR-RES
T47D = system: T47D
SN12C = system: SN12C

`O=[N+]([O-])C(/C(Cl)=C(\Cl)Br)=C(/Cl)SCc1ccccc1` was tested, and the GI50 (Malme-3M) was 6310 nM (inactive), the GI50 (NCI-H23) was 5710 nM (inactive) and the GI50 (A549) was 16300 nM (inactive). For the same molecule, the GI50 (SF-295) was 16900 nM (inactive), the GI50 (OVCAR-8) was 2260 nM (inactive) and the GI50 (HCT-15) was 2900 nM. For the same molecule, the GI50 (MDA-MB-435) was 1870 nM (inactive), the GI50 (HT-29) was 2120 nM (inactive) and the GI50 (NCI-H226) was 14400 nM (inactive). The GI50 (SK-OV-3) was 19600 nM (inactive), the GI50 (RXF 393) was 2350 nM (inactive) and the GI50 (SNB-19) was 17800 nM (inactive). For the same molecule, the GI50 (M14) was 2770 nM (inactive), the GI50 (OVCAR-5) was 12500 nM (inactive) and the GI50 (PC-3) was 3840 nM (inactive). The GI50 (Hs-578T) was 5110 nM (inactive), the GI50 (LOX IMVI) was 1860 nM (inactive) and the GI50 (SF-268) was 2850 nM (inactive). The GI50 (HCT-116) was 2480 nM (inactive), the GI50 (SNB-75) was 3260 nM (inactive) and the GI50 (HL-60) was 336 nM (active). The GI50 (TK-10) was 4500 nM (inactive), the GI50 (HOP-92) was 2310 nM (inactive) and the GI50 (SR) was 1440 nM (inactive). The GI50 (CCRF-CEM) was 507 nM (active), the GI50 (NCI-H522) was 1890 nM (inactive) and the GI50 (MDA-MB-231) was 2940 nM (inactive). The GI50 (A498) was 8040 nM (inactive), the GI50 (SF-539) was 8830 nM (inactive) and the GI50 (IGROV-1) was 5900 nM (inactive). For the same molecule, the GI50 (MCF7) was 2950 nM (inactive), the GI50 (SK-MEL-28) was 2310 nM (inactive) and the GI50 (SK-MEL-5) was 2900 nM (inactive). For the same molecule, the GI50 (HOP-62) was 15100 nM (inactive), the GI50 (SW-620) was 2030 nM (inactive) and the GI50 (UO-31) was 2520 nM (inactive). For the same molecule, the GI50 (HCC 2998) was 11200 nM (inactive), the GI50 (NCI-H460) was 12800 nM (inactive) and the GI50 (OVCAR-4) was 3870 nM (inactive). For the same molecule, the GI50 (DU-145) was 13000 nM (inactive), the GI50 (UACC-257) was 6210 nM (inactive) and the GI50 (786-0) was 2080 nM (inactive). For the same molecule, the GI50 (UACC-62) was 3200 nM (inactive), the GI50 (COLO 205) was 1980 nM (inactive) and the GI50 (RPMI-8226) was 1720 nM (inactive). For the same molecule, the GI50 (SK-MEL-2) was 3800 nM (inactive), the GI50 (MDA-N) was 1850 nM (inactive) and the GI50 (BT-549) was 2560 nM (inactive). For the same molecule, the GI50 (EKVX) was 6670 nM (inactive), the GI50 (ACHN) was 2970 nM (inactive) and the GI50 (KM12) was 14400 nM (inactive). For the same molecule, the GI50 (K562) was 1270 nM (inactive), the GI50 (CAKI-1) was 1800 nM (inactive) and the GI50 (MOLT-4) was 778 nM (active). For the same molecule, the GI50 (OVCAR-3) was 2740 nM (inactive), the GI50 (U-251) was 6460 nM (inactive) and the GI50 (NCI/ADR-RES) was 2770 nM (inactive). The GI50 (T47D) was 3680 nM (inactive) and the GI50 (SN12C) was 3310 nM (inactive).

Source: ChEMBL document CHEMBL1201862, “PubChem BioAssay data set” (2004)
